Reference: publication PMC8877822, “Interrogation of the Structure–Activity Relationship of a Lipophilic Nitroaromatic Prodrug Series Designed for Cancer Gene Therapy Applications” (Pharmaceuticals, 2022)

Legend:
[1] = LogD7.4 by low-volume octanol/PBS shake-flask method; type: physicochemical; conditions: n-octanol/PBS; octanol-water partition coefficient, shake-flask method at pH 7.4
Procedure: Distribution ratios (LogD7.4) were determined by a low-volume octanol/PBS shake-flask method. Briefly, saturated solutions of octanol and PBS were prepared by mixing equal volumes of n-octanol and PBS (pH 7.4) before being left for three days. The octanol and PBS phases were then carefully separated and left to stand for at least 24 h. Stock solutions (0.1–0.5 mM) of each compound were prepared in octanol saturated with PBS. The stock solutions were diluted with octanol saturated with PBS containing and inter-assay control (acridone) to a final compound concentration of 50 μM. Aliquots (450 μL) were then taken in triplicate, and 450 μL of PBS saturated with octanol was added into amber tubes. The tubes were then sealed in parafilm and rotated for 90 min at 30 rpm to equilibrate. After centrifugation (15,000× g, 5 min, 20°C) the octanol and PBS phases were separated into different tubes and the octanol phase diluted with methanol (1:5 v/v). Both phases were analyzed by HPLC (diode-array detector at 364 ± 10 nm) by injecting 50 μL of the PBS phase and 15 μL of the diluted octanol phase. The results were then expressed as the log ratio of the peak areas obtained from the octanol and PBS phases corrected for dilution and injection volume.

100% HCT116 AKR1C3 MCLs = experiment: 3D multicellular layer (MCL) assay, 100% HCT116 AKR1C3; type: cell-based, human; conditions: 10 µM prodrug, five hours
Procedure: Similar to the 3D NfsA_Ec screen, increased lipophilicity also tracked with increased LCK in 100% AKR1C3-expressing MCLs (R = 0.78, R^2 = 0.61). […] These three lead compounds were taken forward into in vivo studies.
(§1) Multicellular layers (MCLs) were grown, and bystander effect assays were performed as previously reported.
(§2) Figure 4 Lipophilic structure–activity relationship for AKR1C3 in three dimensions. (A) Plating efficiency in 100% HCT116 WT and 100% HCT116 AKR1C3 MCLs exposed to 10 µM prodrug for five hours before dissociation and plating to determine clonogenic survival. (B) Correlation between Log cell kill and LogD7.4. R = 0.78, R^2 = 0.61. Log cell kill = Log CS (control)–Log CS (treated), where CS is the number of clonogenic survivors per MCL.

H1299 WT cells = experiment: Anti-proliferative IC50 assay, H1299 WT cells; type: cell-based; conditions: Homo sapiens, NCI-H1299, 4 hour drug exposure, regrowth for five days
Procedure: (§3) The anti-proliferative IC50 was determined as the concentration of prodrug required for 50% inhibition of cell growth, following drug exposure for four hours, then five days regrowth in the absence of drug. Assays were performed under oxic or anoxic conditions as described previously, the latter by using a 5% H2/palladium catalyst scrubbed Bactron anaerobic chamber (Sheldon Manufacturing, Cornelius, OR, USA) to achieve severe anoxia (<10 ppm O2 gas phase) during prodrug exposure.
(§4) Supplementary Table S2. In vitro anti-proliferative activity of the three lead prodrug compounds in H1299 cells expressing E. coli NfsA. IC50 values were determined as the concentration of drug required to inhibit cell growth by 50% of untreated controls following 4 hour drug exposure, with washing and regrowth for five days.
(§5) Compound WT NfsA_Ec Ratio

[2] = system: H1299 cells expressing E. coli NfsA; experiment: Anti-proliferative IC50 assay, H1299 cells expressing E. coli NfsA; type: cell-based; conditions: for IC50: Escherichia coli, NCI-H1299, H1299 NfsA_Ec, 4 hour drug exposure, regrowth for five days; for WT:NfsA_Ec IC50 ratio: H1299 WT vs H1299 NfsA_Ec
Procedure: as §3, §4, §5

[3] = system: HCT116 cells expressing E. coli NfsA nitroreductase (NfsA_Ec); experiment: Low cell density anti-proliferative (IC50) assay, HCT116 NfsA_Ec vs HCT116 WT; type: cell-based; conditions: aerobic, five days regrowth; for IC50: Escherichia coli, HCT-116, four hour drug exposure
Procedure: (§6) Next, we evaluated the compounds for activity with the major nitroreductase from E. coli, NfsA (NfsA_Ec), or the human aldo-keto reductase AKR1C3, using a low cell density anti-proliferative (IC50) assay (Figure 2). The sensitivity of HCT116 wild-type (WT) cells and HCT116 cells over-expressing either NfsA_Ec or AKR1C3 was examined under aerobic conditions.
as §3
Figure 2 In vitro anti-proliferative activity of the novel lipophilic analogue series in HCT116 cells expressing AKR1C3 and E. coli NfsA (NfsA_Ec). IC50 values were determined as the concentration of drug required to inhibit cell growth by 50% of untreated controls following four hour drug exposure, with washing and regrowth for five days. Respective IC50 ratios (WT:AKR1C3 or WT:NfsA_Ec) are indicated above the bars for each compound. TEXT PRINTED IN THE PICTURE: PR-104A: HCT116 AKR1C3: 84; HCT116 NfsA_Ec: 2680 | 1: HCT116 AKR1C3: 1.8; HCT116 NfsA_Ec: 242 | 2: HCT116 AKR1C3: 1.6; HCT116 NfsA_Ec: 1431 | 3: HCT116 AKR1C3: 2.3; HCT116 NfsA_Ec: 913 | 4: HCT116 AKR1C3: 3.3; HCT116 NfsA_Ec: 594 | 5: HCT116 AKR1C3: 3.3; HCT116 NfsA_Ec: 152 | 6: HCT116 AKR1C3: 2.4; HCT116 NfsA_Ec: 741 | 7: HCT116 AKR1C3: 3.2; HCT116 NfsA_Ec: 174 | 8: HCT116 AKR1C3: 4.9; HCT116 NfsA_Ec: 81 | 9: HCT116 AKR1C3: 3.4; HCT116 NfsA_Ec: 147 DOUBTS OF THE COPYIST ABOUT THIS PICTURE: All values: the picture prints no measure or unit for the grey numbers above the blue and red bars. […] Each is given only with the cell line of the bar it stands over, as named in the picture's key.

[4] = system: 97% HCT116 WT/3% HCT116 NfsA_Ec MCLs; experiment: 3D multicellular layer (MCL) bystander assay, 97% HCT116 WT/3% HCT116 NfsA_Ec; type: cell-based; conditions: 10 µM prodrug, five hours
Source text: We then examined our compounds in a high cell density, 3D multi-cellular layer (MCL) assay in order to determine tissue penetration capacity of the active metabolite(s) and the potential for an efficient bystander effect. Mixed MCLs consisting of a small percentage HCT116 NfsA_Ec cells (3%) in the presence of HCT116 WT cells (97%) were used as a robust screen for efficient bystander cell kill. Here, active cytotoxic metabolites can diffuse out of the minority NfsA_Ec ‘prodrug-activating’ cell population into the WT ‘target’ population, causing death of cells that would not normally be sensitive to that concentration of prodrug.
as §1
as §2, with “Figure 3” for “Figure 4”, “for NfsA_Ec” for “for AKR1C3”, “and 97%” for “and 100%”, “HCT116 WT/3% HCT116 NfsA_Ec” for “HCT116 AKR1C3”, “= 0.63,” for “= 0.78,”, “= 0.40.” for “= 0.61.”

[5] = system: HCT116 cells over-expressing AKR1C3; experiment: Low cell density anti-proliferative (IC50) assay, HCT116 AKR1C3 vs HCT116 WT; type: cell-based, human; conditions: HCT116 WT vs HCT116 AKR1C3, aerobic, four hour exposure, five days regrowth
Procedure: as §6, §3
Figure 2 In vitro anti-proliferative activity of the novel lipophilic analogue series in HCT116 cells expressing AKR1C3 and E. coli NfsA (NfsA_Ec). IC50 values were determined as the concentration of drug required to inhibit cell growth by 50% of untreated controls following four hour drug exposure, with washing and regrowth for five days. Respective IC50 ratios (WT:AKR1C3 or WT:NfsA_Ec) are indicated above the bars for each compound. […]

[6] = molecular target: T1, purified His6-tagged NfsA_Ec (Escherichia coli, UniProt P17117); set-up: method as in earlier work; conditions: apparent, 250 µM NADPH; cited from earlier work
T1 construct: His6; made in house
T1 sequence (P17117 1-240): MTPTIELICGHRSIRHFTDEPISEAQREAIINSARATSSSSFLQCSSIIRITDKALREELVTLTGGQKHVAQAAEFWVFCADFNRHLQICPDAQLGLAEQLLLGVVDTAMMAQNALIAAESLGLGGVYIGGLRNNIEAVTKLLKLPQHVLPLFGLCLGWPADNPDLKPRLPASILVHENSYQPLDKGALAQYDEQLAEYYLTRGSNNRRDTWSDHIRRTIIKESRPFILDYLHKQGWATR

[7] = set-up: method as in PMID 34959631; conditions: mice, PR-104 at 388 µmol/kg (human equivalent dose); cited from earlier work

| Structure (SMILES) | logD at 90 min [1] | Log cell kill (LCK) (100% HCT116 AKR1C3 MCLs) | IC50 (H1299 WT cells) | IC50 [2] | WT:NfsA_Ec IC50 ratio [2] | melting point | IC50 [3] | Log cell kill (LCK) [4] | WT:NfsA_Ec IC50 ratio ([3]; HCT116 WT vs HCT116 NfsA_Ec, four hour exposure) | WT:AKR1C3 IC50 ratio [5] | Km [6] | kcat [6] | Plasma AUCfree of PR-104A [7] |
| --- | --- | --- | --- | --- | --- | --- | --- | --- | --- | --- | --- | --- | --- |
| CS(=O)(=O)c1cc([N+](=O)[O-])c(C(=O)NCCO)cc1N(CCBr)CCBr [Compound 1, 5-(Bis(2-bromoethyl)amino)-N-(2-hydroxyethyl)-4-(methylsulfonyl)-2-nitrobenzamide] | 1 | ≤ 0.11 | 166000 ± 26000 nM | 1180 ± 40 nM | 141 fold | – | – | – | – | – | – | – | – |
| CN(CCO)C(=O)c1cc(N(CCBr)CCBr)c(S(C)(=O)=O)cc1[N+](=O)[O-] [Compound 2, 5-(Bis(2-bromoethyl)amino)-N-(2-hydroxyethyl)-N-methyl-4-(methylsulfonyl)-2-nitrobenzamide] | 1.2 | ≤ 0.11 | 175000 ± 3500 nM | 170 ± 30 nM | 1029 fold | 138 to 140 °C | – | – | – | – | – | – | – |
| CCCN(CCO)C(=O)c1cc(N(CCBr)CCBr)c(S(C)(=O)=O)cc1[N+](=O)[O-] [Compound 4] | 2.1 | – | – | – | – | – | 170 nM | 3.06 | – | – | – | – | – |
| CCCS(=O)(=O)c1cc([N+](=O)[O-])c(C(=O)N(C)CCO)cc1N(CCBr)CCBr [Compound 9] | 2.1 | – | – | – | – | – | 1000 nM | 1.6 | – | – | – | – | – |
| CS(=O)(=O)OCCN(CCBr)c1c(C(=O)NCCO)cc([N+](=O)[O-])cc1[N+](=O)[O-] [PR-104A, reference compound] | – | – | 131000 ± 9900 nM | 46 ± 3 nM | 2848 fold | – | 30 nM | – | 2680 fold | 84 fold | 100 ± 11 µM | 12 ± 1.4 s⁻¹ | 38 µM-h |
